Test results from patent publication US20100035929A1, “UNNATURAL DISPYRIN ANALOGUES, PREPARATION AND USES THEREOF” (priority 2008, published 2010).
Read-outs that look alike come from different tables or passages of the source.

Tests used:
[1] = biological target: T1, human H3 receptor (Homo sapiens, UniProt Q9Y5N1); assay: H3 affinity, radioligand binding assay employing [3H](R)-α-methylhistamine
Text: (§1) In one aspect, H3 affinity (Ki) and inhibition (IC50) can be determined in 5-point concentration response curves. Using data obtained from such methods, SAR can be established.

[2] = biological target: T1, human H3 receptor; assay: H3 antagonist activity / inhibition (IC50); type: biochemical
Text: as §1

[3] = system: other GPCRs and ion channels; assay: MDS Pharma Services radioligand binding panel, initial screen at single 10 μM concentration: other targets; details: at 10 μM; none with significant activity (no Kis or IC50s<10 μM)
Method: (§2) Multiple screening avenues were pursued to identify the biological activity of dispyrin. Dispyrin was submitted to the screening deck of the Molecular Library Screening Network (MLSCN) and was evaluated against several GPCR targets (M1, M4, D1/D5, mGluR5, mGluR4) in agonist, antagonist and potentiator mode. Utilizing panels of radioligand binding assays from several companies, dispyrin was evaluated against >200 discrete molecular targets over the course of two months. The MDS Pharma Services panel identified multiple activities for dispyrin. […] Other modest activities at the 50-60% range at 10 u.M included other GPCRs and ion channels, but none with significant activity (no Kis or IC50s<10 μM).

[4] = system: calcium and potassium ion channels, including hERG; assay: MDS Pharma Services radioligand binding panel, initial screen at single 10 μM concentration: ion channels; details: human, read-out: inhibition of a number of calcium and potassium ion channels, including hERG
Method: as §2

[5] = 5-point concentration response curves, read-out: H3 Ki
[6] = 5-point concentration response curves, read-out: H3 IC50

T1 sequence (Q9Y5N1 whole entry): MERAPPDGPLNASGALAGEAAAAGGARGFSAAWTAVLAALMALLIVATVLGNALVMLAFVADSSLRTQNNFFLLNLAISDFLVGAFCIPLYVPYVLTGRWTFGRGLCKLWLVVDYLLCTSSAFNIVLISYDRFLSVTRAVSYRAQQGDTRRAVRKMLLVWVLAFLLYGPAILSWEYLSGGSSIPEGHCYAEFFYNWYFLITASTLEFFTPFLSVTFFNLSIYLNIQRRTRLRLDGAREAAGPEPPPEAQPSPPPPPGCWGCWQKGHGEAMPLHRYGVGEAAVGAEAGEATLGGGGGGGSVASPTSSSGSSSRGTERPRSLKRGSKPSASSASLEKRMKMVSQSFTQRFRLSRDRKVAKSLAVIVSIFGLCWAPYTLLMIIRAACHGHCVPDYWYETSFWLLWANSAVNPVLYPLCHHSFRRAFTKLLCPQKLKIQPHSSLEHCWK

Question: Which Ki [1, 5] does the source give for O=C(NCCc1ccc(OCCN2CC[C@@H](F)C2)c(Br)c1)c1cc(Br)cs1 here?
Answer: 1100 nM

Question: What about the IC50 [2, 6] of the same molecule?
Answer: 2100 nM

Question: What does the source list for O=C(NCCc1ccc(OCCN2CCCC2)c(Br)c1)c1cccc(Br)c1 [3-bromo-N-(3-bromo-4-(2-(pyrrolidin-1-yl)ethoxy)phenethyl)benzamide]?
Answer: Ki [1, 5]: 210 nM; IC50 [2, 6]: 450 nM

Question: For CN(C)CCOc1ccc(CCNC(=O)c2cc(Br)c[nH]2)cc1Br [4-bromo-N-(3-bromo-4-(2-(dimethylamino)ethoxy)phenethyl)-1H-pyrrole-2-carboxamide], which Ki [1, 5] is on record?
Answer: 1600 nM

Question: What about the IC50 [2, 6] of the same molecule?
Answer: 3700 nM

Question: CN(C)CCOc1ccc(CCNC(=O)c2cc(Br)cs2)cc1Br [4-bromo-N-(3-bromo-4-(2-(dimethylamino)ethoxy)phenethyl)thiophene-2-carboxamide] was tested. Which Ki [1, 5] did it give?
Answer: 670 nM

Question: And the IC50 [2, 6]?
Answer: 1500 nM

Question: How did the Ki [1, 5] turn out when O=C(NCCc1ccc(OCCN2CCCC2)c(Br)c1)c1cc(Br)c[nH]1 [4-bromo-N-(3-bromo-4-(2-(pyrrolidin-1-yl)ethoxy)phenethyl)-1H-pyrrole-2-carboxamide] was run?
Answer: 190 nM

Question: What about the IC50 [2, 6] of the same molecule?
Answer: 430 nM

Question: Which results are given for O=C(NCCc1ccc(OCCN2CCCC2)c(Br)c1)c1cc(Br)cs1 [4-bromo-N-(3-bromo-4-(2-(pyrrolidin-1-yl)ethoxy)phenethyl)thiophene-2-carboxamide]?
Answer: Ki [1, 5]: 80 nM; IC50 [2, 6]: 180 nM

Question: What does the source list for CN(C)CCCOc1ccc(CCNC(=O)c2cc(Br)cs2)cc1Br [4-bromo-N-(3-bromo-4-(3-(dimethylamino)propoxy)phenethyl)thiophene-2-carboxamide]?
Answer: Ki [1, 5]: 1600 nM; IC50 [2, 6]: 3600 nM

Question: How did the Ki [1, 5] turn out when CN1CCCC(COc2ccc(CCNC(=O)c3cc(Br)c[nH]3)cc2Br)C1 (stereo not shown) [4-bromo-N-(3-bromo-4-((1-methylpiperidin-3-yl)methoxy)phenethyl)-1H-pyrrole-2-carboxamide] was run?
Answer: 1300 nM

Question: And the IC50 [2, 6]?
Answer: 2900 nM

Question: CN1CCCC(COc2ccc(CCNC(=O)c3cc(Br)cs3)cc2Br)C1 (stereo not shown) [4-bromo-N-(3-bromo-4-((1-methylpiperidin-3-yl)methoxy)phenethyl)thiophene-2-carboxamide] was tested. Which Ki [1, 5] did it give?
Answer: 1200 nM

Question: And the IC50 [2, 6]?
Answer: 1700 nM

Question: Which results are given for O=C(NCc1ccc(OCCN2CCCC2)c(Cl)c1)c1cc(Br)cs1 [4-bromo-N-(3-chloro-4-(2-(pyrrolidin-1-yl)ethoxy)benzyl)thiophene-2-carboxamide]?
Answer: Ki [1, 5]: 1100 nM; IC50 [2, 6]: 2400 nM

Question: How did the Ki [1, 5] turn out when O=C(NCCc1ccc(OCCN2CCCC2)c(Cl)c1)c1cc(Br)cs1 [4-bromo-N-(3-chloro-4-(2-(pyrrolidin-1-yl)ethoxy)phenethyl)thiophene-2-carboxamide] was run?
Answer: 160 nM

Question: What about the IC50 [2, 6] of the same molecule?
Answer: 350 nM

Question: Which results are given for CN(C)CCOc1ccc(CCNC(=O)c2ccc(Br)o2)cc1Br [5-bromo-N-(3-bromo-4-(2-(dimethylamino)ethoxy)phenethyl)furan-2-carboxamide]?
Answer: Ki [1, 5]: 2700 nM; IC50 [2, 6]: 5900 nM

Question: O=C(NCCc1ccc(OCCN2CCCC2)c(Br)c1)c1ccc(Br)o1 [5-bromo-N-(3-bromo-4-(2-(pyrrolidin-1-yl)ethoxy)phenethyl)furan-2-carboxamide] was tested. Which Ki [1, 5] did it give?
Answer: 170 nM

Question: What about the IC50 [2, 6] of the same molecule?
Answer: 390 nM

Question: CN(C)CCCOc1ccc(CCNC(=O)c2ccc(Br)o2)cc1Br [5-bromo-N-(3-bromo-4-(3-(dimethylamino)propoxy)phenethyl)furan-2-carboxamide] was tested. Which Ki [1, 5] did it give?
Answer: 2200 nM

Question: What about the IC50 [2, 6] of the same molecule?
Answer: 4800 nM

Question: For CN1CCCC(COc2ccc(CCNC(=O)c3ccc(Br)o3)cc2Br)C1 (stereo not shown) [5-bromo-N-(3-bromo-4-((1-methylpiperidin-3-yl)methoxy)phenethyl)furan-2-carboxamide], which Ki [1, 5] is on record?
Answer: 2100 nM

Question: And the IC50 [2, 6]?
Answer: 4500 nM

Question: How did the Ki [1, 5] turn out when C[C@@H]1CCCN1CCOc1ccc(CCNC(=O)c2cc(Br)cs2)cc1Br [(R)-4-bromo-N-(3-bromo-4-(2-(2-methylpyrrolidin-1-yl)ethoxy)phenethyl)thiophene-2-carboxamide] was run?
Answer: 310 nM

Question: And the IC50 [2, 6]?
Answer: 710 nM

Question: What does the source list for C[C@H]1CCCN1CCOc1ccc(CCNC(=O)c2cc(Br)cs2)cc1Br [(S)-4-bromo-N-(3-bromo-4-(2-(2-methylpyrrolidin-1-yl)ethoxy)phenethyl)thiophene-2-carboxamide]?
Answer: Ki [1, 5]: 330 nM; IC50 [2, 6]: 750 nM

Question: O=C(NCCc1ccc(OCCN2CC[C@H](F)C2)c(Br)c1)c1cc(Br)cs1 [(S)-4-bromo-N-(3-bromo-4-(2-(3-fiuoropyrrolidin-1-yl)ethoxy)phenethyl)thiophene-2-carboxamide] was tested. Which Ki [1, 5] did it give?
Answer: 1100 nM

Question: And the IC50 [2, 6]?
Answer: 2500 nM

Question: With CN(C)CCOc1ccc(CCNC(=O)c2cccn2C)cc1Br [N-(3-bromo-4-(2-(dimethylamino)ethoxy)phenethyl)-1-methyl-1H-pyrrole-2-carboxamide] as the molecule, how does the Ki [1, 5] read?
Answer: 2100 nM

Question: What about the IC50 [2, 6] of the same molecule?
Answer: 4500 nM

Question: How did the Ki [1, 5] turn out when CN(C)CCOc1ccc(CCNC(=O)c2ccc[nH]2)cc1Br [N-(3-bromo-4-(2-(dimethylamino)ethoxy)phenethyl)-1H-pyrrole-2-carboxamide] was run?
Answer: 1500 nM

Question: And the IC50 [2, 6]?
Answer: 3400 nM

Question: Which Ki [1, 5] does the source give for Cn1cccc1C(=O)NCCc1ccc(OCCN2CCCC2)c(Br)c1 [N-(3-bromo-4-(2-(pyrrolidin-1-yl)ethoxy)phenethyl)-1-methyl-1H-pyrrole-2-carboxamide] here?
Answer: 130 nM

Question: What about the IC50 [2, 6] of the same molecule?
Answer: 390 nM

Question: With O=C(NCCc1ccc(OCCN2CCCC2)c(Br)c1)c1ccc[nH]1 [N-(3-bromo-4-(2-(pyrrolidin-1-yl)ethoxy)phenethyl)-1H-pyrrole-2-carboxamide] as the molecule, how does the Ki [1, 5] read?
Answer: 150 nM

Question: And the IC50 [2, 6]?
Answer: 380 nM

Question: O=C(NCCc1ccc(OCCN2CCCC2)c(Br)c1)c1cccc(C(F)(F)F)c1 [N-(3-bromo-4-(2-(pyrrolidin-1-yl)ethoxy)phenethyl)-3-(trifluoromethyl)benzamide] was tested. Which Ki [1, 5] did it give?
Answer: 440 nM

Question: And the IC50 [2, 6]?
Answer: 980 nM

Question: Which results are given for O=C(NCCc1ccc(OCCN2CCCC2)c(Br)c1)c1cccc(Cl)c1 [N-(3-bromo-4-(2-(pyrrolidin-1-yl)ethoxy)phenethyl)-3-chlorobenzamide]?
Answer: Ki [1, 5]: 250 nM; IC50 [2, 6]: 550 nM

Question: What does the source list for O=C(NCCc1ccc(OCCN2CCCC2)c(Br)c1)c1nnc[nH]1 [N-(3-bromo-4-(2-(pyrrolidin-1-yl)ethoxy)phenethyl)-4H-1,2,4-triazole-3-carboxamide]?
Answer: Ki [1, 5]: 430 nM; IC50 [2, 6]: 970 nM

Question: For O=C(NCCc1ccc(OCCN2CCCC2)c(Br)c1)c1cccc(C(F)(F)F)n1 [N-(3-bromo-4-(2-(pyrrolidin-1-yl)ethoxy)phenethyl)-6-(trifluoromethyl)picolinamide], which Ki [1, 5] is on record?
Answer: 270 nM

Question: And the IC50 [2, 6]?
Answer: 560 nM

Question: How did the Ki [1, 5] turn out when O=C(NCCc1ccc(OCCN2CCCC2)c(Br)c1)c1cnco1 [N-(3-bromo-4-(2-(pyrrolidin-1-yl)ethoxy)phenethyl)oxazole-5-carboxamide] was run?
Answer: 37 nM

Question: And the IC50 [2, 6]?
Answer: 83 nM

Question: O=C(NCCc1ccc(OCCN2CCCC2)c(Br)c1)c1nccs1 [N-(3-bromo-4-(2-(pyrrolidin-1-yl)ethoxy)phenethyl)thiazole-2-carboxamide] was tested. Which Ki [1, 5] did it give?
Answer: 116 nM

Question: And the IC50 [2, 6]?
Answer: 260 nM

Question: For CN(C)CCCOc1ccc(CCNC(=O)c2cccn2C)cc1Br [N-(3-bromo-4-(3-(dimethylamino)propoxy)phenethyl)-1-methyl-1H-pyrrole-2-carboxamide], which Ki [1, 5] is on record?
Answer: 1700 nM

Question: And the IC50 [2, 6]?
Answer: 3900 nM

Question: For CN(C)CCCOc1ccc(CCNC(=O)c2ccc[nH]2)cc1Br [N-(3-bromo-4-(3-(dimethylamino)propoxy)phenethyl)-1H-pyrrole-2-carboxamide], which Ki [1, 5] is on record?
Answer: 1300 nM

Question: What about the IC50 [2, 6] of the same molecule?
Answer: 2900 nM

Question: For CN1CCCC(COc2ccc(CCNC(=O)c3cccn3C)cc2Br)C1 (stereo not shown) [N-(3-bromo-4-((1-methylpiperidin-3-yl)methoxy)phenethyl)-1-methyl-1H-pyrrole-2-carboxamide], which Ki [1, 5] is on record?
Answer: 910 nM

Question: What about the IC50 [2, 6] of the same molecule?
Answer: 2100 nM

Question: For CN1CCCC(COc2ccc(CCNC(=O)c3ccc[nH]3)cc2Br)C1 (stereo not shown) [N-(3-bromo-4-((1-methylpiperidin-3-yl)methoxy)phenethyl)-1H-pyrrole-2-carboxamide], which Ki [1, 5] is on record?
Answer: 1500 nM

Question: What about the IC50 [2, 6] of the same molecule?
Answer: 3600 nM

Question: With CN(C)CCCOc1ccc(CCNC(=O)c2cc(Br)c[nH]2)cc1Br [dispyrin, 4-bromo-N-(3-bromo-4-(3-(dimethylamino)propoxy)phenethyl)-1H-pyrrole-2-carboxamide] as the molecule, how does the Ki [1, 5] read?
Answer: 1100 nM

Question: And the Ki ([1]; radioligand binding assay employing [3H](R)-α-methylhistamine, read-out: Ki, affinity for the human H3 receptor)?
Answer: 1040 nM

Question: What about the “other modest activities (other GPCRs and ion channels)” value [3] of the same molecule?
Answer: 50-60%

Question: What about the IC50 [2, 6] of the same molecule?
Answer: 2400 nM

Question: What about the IC50 ([2]; read-out: IC50, human H3 antagonist) of the same molecule?
Answer: 2350 nM

Question: And the IC50 ([2]; text of b259, read-out: IC50, human H3 antagonist)?
Answer: 2350 nM

Question: And the inhibition at 10 µM [4]?
Answer: 50 to 60%

Question: How did the Ki [1, 5] turn out when “N-(3-bromo-4-(2-(pyrrolidin-1- yl)ethoxy)phenethyl)thiazole-5-carboxamide” was run?
Answer: 32 nM

Question: What about the IC50 [2, 6] of the same molecule?
Answer: 72 nM
